Results taken from patent US11807627B2, “Morphic forms of complement factor D inhibitors” (priority 2018, dated 2023).

Tests used:
Type in all cases: physicochemical
[1] = Hygroscopicity / dynamic vapour sorption (DVS)
Method: (§1) Approximately, 10-20 mg of sample were placed into a mesh vapour sorption balance pan and loaded into a DVS Intrinsic dynamic vapour sorption balance by Surface Measurement Systems. The sample was subjected to a ramping profile from 40-90% relative humidity (RH) at 10% increments, maintaining the sample at each step until a stable weight had been achieved (dm/dt 0.004%, minimum step length 30 minutes, maximum step length 500 minutes) at 25° C. After completion of the sorption cycle, the sample was dried using the same procedure to 0% RH and then a second sorption cycle back to 40% RH. Two cycles were performed. The weight change during the sorption/desorption cycles were plotted, allowing for the hygroscopic nature of the sample to be determined. XRPD analysis was then carried out on any solid retained.
as §1, with “Approximately, 10” for “Approximately, 10-20”, “sample was” for “sample were”, “a DVS-1” for “a DVS Intrinsic”

[2] = Storage stability of Compound 3 forms (80° C., 40° C./75% RH, 25° C./60% RH, ambient); conditions: 1 week
Method: No changes by XRPD or HPLC purity were observed when the material was stored at 40° C./75% RH, 80° C. or under ambient conditions.

[3] = Solubility in selected media (FaSSIF, FeSSIF, FaSSGF, pH 4 citrate, pH 6.8 phosphate)
Method: Solubility within selected media (FaSSIF, FeSSIF, FaSSGF, pH 4 citrate and pH 6.8 phosphate) was measured to be <0.01 mg/mL.
The pH 4 citrate buffer was prepared by dissolving sodium citrate (987 mg) and citric acid (1.28 g) in 100 mL H2O. The pH was adjusted to 4. The pH 6.8 phosphate buffer was prepared by dissolving dibasic sodium phosphate dihydrate (873 mg) and monobasic sodium phosphate monohydrate (708 mg) in 100 mL H2O. The pH was adjusted to 6.8. The FaSSIF media was prepared with sodium hydroxide (108 mg), sodium chloride (1.55 g) and monobasic sodium phosphate dihydrate (1.12 g) in H2O (0.25 L) and the pH adjusted to 6.5. FaSSIF/FeSSIF/FaSSGF (0.56 g) was dissolved in the buffer and mixed until opalescent. The FeSSIF media was prepared by dissolving sodium hydroxide (1.01 g), sodium chloride (2.96 g) and glacial acetic acid (2.97 g) in H2O (0.25 L) and the pH adjusted to pH 5. FaSSIF/FeSSIF/FaSSGF (2.81 g) was dissolved in the buffer and thoroughly mixed. The FaSSGF media was prepared by dissolving FaSSIF/FeSSIF/FaSSGF (0.06 g) in a solution of sodium chloride (2.00 g) dissolved in H2O (1 L) and mixing thoroughly.

[4] = Drying of isolated samples at 50° C. for approximately 24 hours
Method: Samples produced from thermal cycling, cooling and evaporation experiments were dried at 50° C. for approximately 24 hours to assess any de-solvation/dehydration. From temperature cycling experiments, 3 samples converted upon drying: • Acetonitrile sample converted from Form J to amorphous; • 40% Ethanol/60% Water (% v/v) converted from Form N to Form P; and • Methanol sample converted from Form O to amorphous.

[5] = Thermogravimetric/differential thermal analysis (TG/DTA)
Method: Approximately, 5 mg of material was weighed into an open aluminium pan and loaded into a simultaneous thermogravimetric/differential thermal analyzer (TG/DTA) and held at room temperature. The sample was then heated at a rate of 10° C./min from 20° C. to 400° C. during which time the change in sample weight occurred was recorded along with any differential thermal events (DTA). Nitrogen was used as the purge gas at a flow rate of 300 cm^3/min.

[6] = Differential scanning calorimetry (DSC)
Method: DSC was performed using a TA Instruments 2920 or Q2000 differential scanning calorimeter. Temperature calibration was performed using NIST-traceable indium metal. The sample was placed into an aluminum DSC pan, covered with a lid, and the weight was accurately recorded. A weighed aluminum pan configured as the sample pan was placed on the reference side of the cell. The method code on the thermogram is an abbreviation for the start and end temperature as well as the heating rate; e.g., -30-250-10 means “from −30° C. to 250° C., at 10° C./min”. The following table summarizes the abbreviations used in each image for pan configurations: […]

[7] = Variable temperature XRPD (VT-XRPD); conditions: Table 27A
Method: VT-XRPD analysis was carried out on a Philips X'Pert Pro Multipurpose diffractometer equipped with a temperature chamber. The samples were scanned between 4 and 35.99°2θ using Cu K radiation (α1λ=1.54060 Å; α2=1.54443 Å; β=1.39225 Å; α1: α2 ratio=0.5) running in Bragg-Brentano geometry (step size 0.008°2θ) using 40 kV/40 mA generator settings.

[8] = Polarized light microscopy (PLM); conditions: Table 27A
Method: The presence of crystallinity (birefringence) was determined using an Olympus BX50 microscope, equipped with cross-polarizing lenses and a Motic camera. Images were captured using Motic Images Plus 2.0. All images were recorded using the 20×objective, unless otherwise stated. All samples were prepared using silicone oil and covered with a cover slip before PLM analysis was completed.

SMILES: CC(=O)c1nn(CC(=O)N2[C@H](C(=O)Nc3nc(Br)ccc3C)C[C@@]3(C)C[C@@H]23)c2ccc(-c3cnc(C)nc3)cc12 [Form J]
- DVS analysis: hygroscopic nature ([1]; 25° C.): hygroscopic
- DVS: hygroscopicity ([1]; Table 27A): Hygroscopic first
- XRPD post DVS ([1]; Table 27A): Form B
- Post-DVS XRPD analysis ([1]; after DVS): pattern D
- DVS uptake ([1]; first sorption cycle): 6.9 wt %
- DVS uptake as equivalents of water ([1]; first sorption cycle): 2.5 equiv. water
- DVS uptake ([1]; second sorption cycle): 5.2 wt %
- DVS uptake as equivalents of water ([1]; second sorption cycle): 1.8 equiv. water
- 1 week stability: 40° C./75% RH HPLC (uncapped) [2]: 99.8% (by relative area)
- 1 week stability: 80° C. HPLC (capped) [2]: 99.9% (by relative area)
- 1 week stability: 80° C. XRPD (capped) [2]: Pattern D
- 1 week stability: Ambient conditions HPLC (capped) [2]: 99.9% (by relative area)
- solubility ([3]; FaSSGF): <10 µg/mL
- solubility ([3]; FaSSIF): <10 µg/mL
- solubility ([3]; FeSSIF): <10 µg/mL
- Form after drying (de-solvation/dehydration) [4]: amorphous
- Onset Temp: Solvent loss ([5]; Table 22B): loss 129.3, ° C.
- Onset Temp: melting transition ([5]; Table 22B): 200.0 °C
- TG/DTA: Melting ([5]; Table 27A): melting 206.7 °C
- TG/DTA: Solvent loss ([5]; Table 27A): Solvent loss 138.5° C.,
- Mass loss within the TG trace ([5]; up to 150° C.): 2.2 wt %
- Thermal events from SSCI report: Exothermic base line shifts ([6]; SSCI report): ~134° C., apparent
- Thermal events from SSCI report: apparent melt onset ([6]; SSCI report): melt onset 83 °C
- DSC: Melting ([6]; onset, Table 27A): melting 202.9 °C
- DSC: Solvent loss ([6]; onset, Table 27A): Solvent loss 138.5 °C
- DSC: Melting (peak) ([6]; peak, Table 27A): (peak 213.3° C.)
- DSC: Solvent loss (peak) ([6]; peak, Table 27A): (peak 152.4° C.)
- VT-XRPD: Form J de-solvated to Pattern G [7]: Pattern G (120° C.)
- PLM [8]: Birefringent rods
